These results are taken from patent publication US9896481B2, “Modified mini-hepcidin peptides and methods of using thereof” (priority 2011, dated 2018).

Read-outs that look alike come from different tables or passages of the source. Starred links: 1 amine or outer side, 2 acyl side, 3 side chain; linkers in the order of their positions; H or OH if unused. Positions of bridges follow the written chain, without caps; N, C: chain ends. Non-standard residues stand in square brackets, D forms with d. Residues, ends and D or L forms follow the SMILES beside them. No end group written: not given here. *: point of attachment. PEG12 = NCCOCCOCCOCCOCCOCCOCCOCCOCCOCCOCCOCCOCCC(=O)O; dDip = N[C@@H](C(=O)O)C(c1ccccc1)c1ccccc1; Dip = N[C@H](C(=O)O)C(c1ccccc1)c1ccccc1; Palmitoyl = CCCCCCCCCCCCCCCC(=O)*; X2 = O=C(C1CCC(CN[*:1])CC1)[*:2]; Cysteamide = C(CS[*:3])N[*:1]; Inp = O=C(O)C1CCNCC1

What is called EC50 is the concentration giving half of the maximal effect.

The assay concerns the target T1, ferroportin tagged at the C-terminus with green fluorescent protein (Fpn-GFP) (Mus musculus, UniProt Q9JHI9).
T1 construct: expressed in transfected cells; host or cells: ECR293/Fpn-GFP (stably transfected, ponasterone-inducible)
T1 sequence (Q9JHI9 1-570): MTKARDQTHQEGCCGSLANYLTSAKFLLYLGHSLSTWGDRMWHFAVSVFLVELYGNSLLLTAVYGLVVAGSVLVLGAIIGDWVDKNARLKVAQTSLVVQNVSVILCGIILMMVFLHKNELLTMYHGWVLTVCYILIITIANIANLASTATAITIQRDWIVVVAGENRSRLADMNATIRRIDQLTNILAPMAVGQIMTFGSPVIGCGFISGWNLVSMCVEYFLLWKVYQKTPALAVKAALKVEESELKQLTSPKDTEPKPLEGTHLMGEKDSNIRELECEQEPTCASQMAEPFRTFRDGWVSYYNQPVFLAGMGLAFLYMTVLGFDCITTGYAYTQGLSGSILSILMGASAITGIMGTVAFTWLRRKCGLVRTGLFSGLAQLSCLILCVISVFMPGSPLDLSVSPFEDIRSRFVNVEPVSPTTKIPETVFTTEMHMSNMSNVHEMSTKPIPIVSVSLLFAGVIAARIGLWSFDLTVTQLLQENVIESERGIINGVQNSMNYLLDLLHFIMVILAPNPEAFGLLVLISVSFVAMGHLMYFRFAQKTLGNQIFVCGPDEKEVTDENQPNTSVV
The experiment in a line: Flow cytometry of ferroportin-GFP degradation in ECR293/Fpn-GFP cells. It counts as cell-based. On the procedure: In vitro activity may be measured by the dose-dependent loss of fluorescence of cells engineered to display ferroportin fused to green fluorescent protein as in Nemeth et al. (2006) Blood 107:328-33. Aliquots of cells are incubated for 24 hours with graded concentrations of a reference preparation of Hep25 or a mini-hepcidin. As provided herein, the EC50 values are provided as the concentration of a given compound (e.g. peptide) that elicits 50% of the maximal loss of fluorescence generated by the reference Hep25 preparation.
Mutational studies indicate that C326, the cysteine residue at position 326 of human ferroportin, is the critical residue involved in binding hepcidin. Thus, various N-terminal fragments of Hep25 containing a thiol, i.e. Hep 4-7, Hep3-7, Hep3-8, Hep3-9, Hep1-7, Hep1-8, Hep1-9, and Hep1-10 C7A, were chemically synthesized, refolded and their activities relative to Hep25 were assayed using flow-cytometric quantitation of the ferroportin-GFP degradation, iron efflux estimation based on measurements of cellular ferritin, and radioisotopic iron efflux studies.
The activity of peptides of the present invention was measured by flow cytometry as previously described. See Nemeth et al. (2006) Blood 107:328-333, which is herein incorporated by reference. ECR293/Fpn-GFP, a cell line stably transfected with a ponasterone-inducible ferroportin construct tagged at the C-terminus with green fluorescent protein was used. See Nemeth et al. (2004) Science 306:2090-2093, which is herein incorporated by reference. Briefly, the cells were plated on poly-D-lysine coated plates in the presence of 20 μM FAC, with or without 10 μM ponasterone. After 24 hours, ponasterone was washed off, and cells were treated with peptides for 24 hours. Cells were then trypsinized and resuspended at 1×10^6 cells/ml, and the intensity of green fluorescence was analyzed by flow cytometry. Flow cytometry was performed on FAC SCAN (fluorescence activated cell scanner) Analytic Flow Cytometer (Becton Dickinson, San Jose, Calif.) with […] version 3.3 software (Becton Dickinson). Cells not induced with ponasterone to express Fpn-GFP were used to establish a gate to exclude background fluorescence. Cells induced with ponasterone, but not treated with any peptides, were used as the positive control. Each peptide was tested over the range of concentrations (0, 0.01, 0.03, 0.1, 0.3, 1, 3 and 10 μM). Each peptide treatment was repeated independently 3 to 6 times. For each concentration of peptide, the results were expressed as a fraction of the maximal activity (FHep25) of Hep25 (in the dose range 0.01-10 μM), according to the formula 1−((Fx−FHep25)/(Funtreated−FHep25)), where F was the mean of the gated green fluorescence and x was the peptide.
Background: In flow cytometry, cells or beads pass a laser one at a time.

The mark [1] stands for this setting: read-out: EC50 (nM) in vitro, Table 3.

Turning to `CCCCCCCCCCCCCCCC(=O)NCCOCCOCCOCCOCCOCCOCCOCCOCCOCCOCCOCCOCCC(=O)N[C@@H](C(=O)N[C@@H](C(=O)N[C@H](CS)C(=O)N[C@@H](C(=O)N1CCC[C@@H]1C(=O)N[C@@H](C(=O)N[C@H](Cc1c[nH]cn1)C(N)=O)C(c1ccccc1)c1ccccc1)[C@H](C)CC)[C@H](C)CC)C(c1ccccc1)c1ccccc1` [PR50, R4-Dpa-I-C-I-P-Dpa-H] ({Palmitoyl-PEG12}-[dDip][dI][dC][dI][dP][dDip][dH]-NH2), the EC50 under setting [1] was less than 10 nM.
On the same count and under the same terms, under `CCCCCCCCCCCCCCCC(=O)NCCOCCOCCOCCOCCOCCOCCOCCOCCOCCOCCOCCOCCC(=O)N[C@@H](C(=O)N[C@@H](C(=O)N[C@H](CS)C(=O)N[C@@H](C(=O)N1CCC[C@@H]1C(=O)N[C@@H](C(=O)N[C@H](Cc1c[nH]cn1)C(=O)N[C@@H](C(=O)N[C@H](CC(=O)O)C(N)=O)[C@H](C)O)C(c1ccccc1)c1ccccc1)[C@H](C)CC)[C@H](C)CC)C(c1ccccc1)c1ccccc1` [PR48, R4-Dpa-I-C-I-P-Dpa-H-T-D] ({Palmitoyl-PEG12}-[dDip][dI][dC][dI][dP][dDip][dH][dT][dD]-NH2) stands 50 nM.
For the molecule “T2A: Hep25 with alanine substitution T2A (DAHFPICIFCCGCCHRSKCGMCCKT; disulfide (positions not given here); not fully specified (C-terminus); also: four disulfide bonds, pairing not given here; UniProt P81172 60-84, looked up, variant T2A)”, the “hepcidin activity relative to Hep25 (in words)” value (FIGS. 1-4) is listed as “did not substantially impact hepcidin activity”.
For `CCCCCCCCCCCCCCCC(=O)NCCOCCOCCOCCOCCOCCOCCOCCOCCOCCOCCOCCOCCC(=O)N[C@H](Cc1ccccc1)C(=O)N[C@H](CC(C)C)C(=O)N[C@H](CS)C(=O)N[C@H](CC(C)C)C(=O)N1CCC[C@@H]1C(=O)N[C@@H](C(=O)N[C@H](Cc1c[nH]cn1)C(=O)N[C@@H](C(=O)N[C@H](CC(=O)O)C(N)=O)[C@H](C)O)C(c1ccccc1)c1ccccc1` [PR52, R4-F-L-C-L-P-Dpa-H-T-D] ({Palmitoyl-PEG12}-[dF][dL][dC][dL][dP][dDip][dH][dT][dD]-NH2), under setting [1], the EC50 is less than 10 nM.
For the molecule `CC[C@H](C)[C@H](NC(=O)[C@@H]1CSSC[C@H](N)C(=O)N[C@@H](CC(=O)O)C(=O)N[C@@H]([C@@H](C)O)C(=O)N[C@@H](Cc2c[nH]cn2)C(=O)N[C@@H](Cc2ccccc2)C(=O)N2CCC[C@H]2C(=O)N[C@@H]([C@@H](C)CC)C(=O)N1)C(=O)N[C@@H](Cc1ccccc1)C(N)=O` [Cyc-1] (H-CDTHFPICIF-NH2; disulfide 1-8; N-terminus assumed), the EC50 (Table 1, 24 h peptide treatment, 50% of maximal loss of fluorescence by Hep25, read-out: EC50) amounted to 300 nM.
For the molecule `CCCCCCCCCCCCCCCC(=O)NCCOCCOCCOCCOCCOCCOCCOCCOCCOCCOCCOCCOCCC(=O)N[C@H](Cc1ccccc1)C(=O)N[C@@H](C(=O)N[C@H](CS)C(=O)N[C@@H](C(=O)N1CCC[C@@H]1C(=O)N[C@@H](C(=O)N[C@H](Cc1c[nH]cn1)C(N)=O)C(c1ccccc1)c1ccccc1)[C@H](C)CC)[C@H](C)CC` [PR49, R4-F-I-C-I-P-Dpa-H] ({Palmitoyl-PEG12}-[dF][dI][dC][dI][dP][dDip][dH]-NH2), the EC50 under setting [1] is less than 10 nM.
Turning to `CCCCCCCCCCCCCCCC(=O)NCCOCCOCCOCCOCCOCCOCCOCCOCCOCCOCCOCCOCCC(=O)N[C@H](Cc1ccccc1)C(=O)N[C@@H](C(=O)N[C@H](CS)C(=O)N[C@@H](C(=O)N1CCC[C@@H]1C(=O)N[C@@H](C(=O)N[C@H](Cc1c[nH]cn1)C(=O)N[C@@H](C(=O)N[C@H](CC(=O)O)C(N)=O)[C@H](C)O)C(c1ccccc1)c1ccccc1)C(C)C)C(C)C` [PR51, R4-F-V-C-V-P-Dpa-H-T-D] ({Palmitoyl-PEG12}-[dF][dV][dC][dV][dP][dDip][dH][dT][dD]-NH2), under setting [1], the EC50 was found to be 100 nM.
For `N=C(N)NCCC[C@@H]1NC(=O)C2CCC(CC2)CNC(=O)[C@@H](C(c2ccccc2)c2ccccc2)NC(=O)CNC(=O)[C@@H](N)CSSCCNC(=O)[C@H](C(c2ccccc2)c2ccccc2)NC(=O)C2CCN(CC2)C(=O)C2CCC(CC2)CNC1=O` [PR-4] (H-CG[dDip][X2]R[X2][Inp][Dip]-Cysteamide; disulfide 1-C), the EC50 (read-out: EC50) was determined as 2000 nM.
